One assay has as its target PI3Kα (Homo sapiens (Human), UniProt P42336). Put plainly: Biochemical evaluation of activity of PI3Kα (Kinase-Glo luminescence kinase assay). The conditions noted are these: 25 μM ATP, 50 μM PIP2, 1 h at room temperature. The procedure:
The potency of compounds in the present intention against PI3Kα was assessed by in vitro kinase assay. The kinase activity of PI3Kα was determined by detecting the level of ADP produced in the kinase reaction with luciferase-based luminescence detection.
The Kinase-Glo™ Kinase Assay Kit was purchased from Promega. All assays were performed at room temperature using white OptiPlate™-384 well plate. The PI3Kα kinase was purchased from Invitrogen. The substrate was PIP2 from Invitrogen. The kinase buffer contained 50 mM Hepes (pH 7.5), 3 mM MgCl2, 100 mM NaCl, 1 mM EGTA, 0.03% CHAPS and 2 mM DTT. […] The substrate solution contained 100 μM PIP2 and 50 μM ATP. The test compound was diluted to 10 mM in 100% DMSO and serially diluted three times into ten different concentrations in 100% DMSO. The compound diluted in 100% DMSO was diluted 25-fold in 1×kinase buffer. 2.5 μL of the diluted compound solution and 2.5 μL PI3Kα kinase solution were added to each well of a 384-well plate. The reaction was initiated by addition of 5 μL substrate solution to each well. […] The plate was then covered and the reaction was allowed to proceed for one hour at room temperature, followed by the addition of 10 μL Kinase-Glo™ reagent to each well to stop the reaction.
The percentage of inhibition was calculated as follows: Inhibition %=100−(max−sample RLU)/(max−min)*100
wherein sample RLU was the luminescence reading for a given compound concentration, min was the reading of DMSO control, and max was the reading of the enzyme-free control. The IC50 value was calculated with the XLfit program in Excel.
In general terms: In Kinase-Glo more light means more ATP remaining.

For assay [1], the system named is human lung cancer cell NCI-H460. Kind of assay: Tumor cell viability by MTT assay. The assay is classed as cell-based. As to conditions: Homo sapiens, NCI-H460, 96 h. The procedure:
After 24 hours, 100 μL of fresh medium containing different concentrations of test compounds and the corresponding solvent control was added into each well to a final concentration of DMSO less than 0.2%. Six to nine concentration groups were set for each test compound, and three parallel wells were set for each group. The plate was incubated at 5% CO2, 37° C. for 96 hours. 20 μL of freshly prepared PBS solution containing 5 mg/mL MTT was added to each well. The supernatant was discarded after incubation for another 4 hours. 150 μL DMSO was added to each well to dissolve the MTT formazan precipitate. After being mixed by a micro-oscillator, the optical density (OD) was measured at the wavelength of 570 nm, and the tumor cells treated with DMSO were used as a control group.

Data on 10 compounds can be found in patent US11534443B2, “Quinazoline compounds, preparation method, use, and pharmaceutical composition thereof” (INSTITUTE OF MATERIA MEDICA, CHINESE ACADEMY OF MEDICAL …, priority 2016, dated 2022).

Chain of PI3Kα (P42336 whole entry): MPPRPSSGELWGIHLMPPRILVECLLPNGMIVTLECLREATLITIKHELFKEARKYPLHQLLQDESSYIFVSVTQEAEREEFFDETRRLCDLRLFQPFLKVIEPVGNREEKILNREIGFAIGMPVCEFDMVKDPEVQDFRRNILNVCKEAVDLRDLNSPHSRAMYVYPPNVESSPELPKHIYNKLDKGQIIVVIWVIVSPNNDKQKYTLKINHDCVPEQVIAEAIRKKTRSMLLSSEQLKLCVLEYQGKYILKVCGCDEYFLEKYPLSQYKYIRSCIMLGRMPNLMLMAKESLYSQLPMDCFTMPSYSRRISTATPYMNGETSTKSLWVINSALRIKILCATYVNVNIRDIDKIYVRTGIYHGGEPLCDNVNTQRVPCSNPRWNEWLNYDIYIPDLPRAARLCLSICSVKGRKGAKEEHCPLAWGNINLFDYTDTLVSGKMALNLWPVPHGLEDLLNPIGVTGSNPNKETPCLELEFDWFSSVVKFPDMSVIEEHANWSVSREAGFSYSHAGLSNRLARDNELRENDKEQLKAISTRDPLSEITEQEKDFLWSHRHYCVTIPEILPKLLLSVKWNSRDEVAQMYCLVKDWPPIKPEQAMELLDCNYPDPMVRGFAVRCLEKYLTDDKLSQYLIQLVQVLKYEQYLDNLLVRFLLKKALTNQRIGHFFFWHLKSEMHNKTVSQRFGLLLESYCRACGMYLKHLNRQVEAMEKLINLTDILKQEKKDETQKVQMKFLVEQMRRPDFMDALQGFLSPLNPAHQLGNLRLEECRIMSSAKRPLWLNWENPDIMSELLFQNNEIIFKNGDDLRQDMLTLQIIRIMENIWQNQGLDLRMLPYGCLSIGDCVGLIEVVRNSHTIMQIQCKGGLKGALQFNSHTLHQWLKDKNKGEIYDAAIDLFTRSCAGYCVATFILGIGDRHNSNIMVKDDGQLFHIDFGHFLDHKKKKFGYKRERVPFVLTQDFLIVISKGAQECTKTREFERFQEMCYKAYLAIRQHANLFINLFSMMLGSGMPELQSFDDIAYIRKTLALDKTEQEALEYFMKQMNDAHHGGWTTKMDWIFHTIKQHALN
Chain of PI3Kα (P27986 whole entry partner): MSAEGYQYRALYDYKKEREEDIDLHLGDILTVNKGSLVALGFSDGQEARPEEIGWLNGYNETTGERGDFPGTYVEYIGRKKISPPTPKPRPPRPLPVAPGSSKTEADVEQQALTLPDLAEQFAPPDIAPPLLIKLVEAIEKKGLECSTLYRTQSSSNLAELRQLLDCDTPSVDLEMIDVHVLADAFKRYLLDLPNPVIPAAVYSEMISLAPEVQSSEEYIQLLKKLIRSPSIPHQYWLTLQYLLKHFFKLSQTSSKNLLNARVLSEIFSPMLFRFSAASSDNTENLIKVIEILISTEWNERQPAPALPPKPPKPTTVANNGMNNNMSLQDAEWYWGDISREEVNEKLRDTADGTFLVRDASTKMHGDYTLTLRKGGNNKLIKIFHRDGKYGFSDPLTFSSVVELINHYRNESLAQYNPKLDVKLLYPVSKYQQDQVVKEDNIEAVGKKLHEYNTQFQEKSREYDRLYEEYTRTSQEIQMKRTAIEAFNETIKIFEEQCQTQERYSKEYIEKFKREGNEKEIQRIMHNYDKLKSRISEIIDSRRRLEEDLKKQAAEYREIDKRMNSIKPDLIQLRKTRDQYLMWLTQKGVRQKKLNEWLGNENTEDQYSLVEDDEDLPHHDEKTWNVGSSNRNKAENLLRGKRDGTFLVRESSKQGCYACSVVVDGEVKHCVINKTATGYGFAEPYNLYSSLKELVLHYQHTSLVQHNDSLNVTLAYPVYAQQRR

The term IC50 denotes the concentration needed to halve the response being measured. A high value points to a need for much substance. For the compound `COc1ncc(-c2cc(OC3CCN(C)CC3)c3nc(N)nc(C)c3c2)cc1NS(=O)(=O)c1ccc(F)cc1F` [Example 15, N-(5-(2-amino-4-methyl-8-((1-methylpiperidin-4-yl)oxy)quinazolin-6-yl)-2-methoxypyridin-3-yl)-2,4-difluorobenzenesulfonamide], the IC50 was found to be 0.0055 µM on PI3Kα and 0.66 µM in assay [1].
The like results for `COc1ncc(-c2cc(OCCN3CCOCC3)c3nc(N)nc(C)c3c2)cc1NS(=O)(=O)c1ccc(F)cc1F` [Example 16, N-(5-(2-amino-4-methyl-8-(2-morpholinoethoxy)quinazolin-6-yl)-2-methoxypyridin-3-yl)-2,4-difluorobenzenesulfonamide] were, in that order, 0.0041 µM and 1.1 µM.
For `COc1ncc(-c2cc(OC3CCC(F)(F)CC3)c3nc(N)nc(C)c3c2)cc1NS(=O)(=O)c1ccc(F)cc1F` [Example 17, N-(5-(2-amino-8-((4,4-difluorocyclohexyl)oxy)-4-methylquinazolin-6-yl)-2-methoxypyridin-3-yl)-2,4-difluorobenzenesulfonamide], in that order: 0.0023 µM and 0.083 µM.
As to `COc1ncc(-c2cc(OC3CCCCC3)c3nc(N)nc(C)c3c2)cc1NS(=O)(=O)c1ccc(F)cc1F` [Example 22, N-(5-(2-amino-8-(cyclohexyloxy)-4-methylquinazolin-6-yl)-2-methoxypyridin-3-yl)-2,4-difluorobenzenesulfonamide], the IC50 is 0.0006 µM on PI3Kα and 0.096 µM in assay [1].
The like results for `COCCOc1cc(-c2cnc(OC)c(NS(=O)(=O)c3ccc(F)cc3F)c2)cc2c(C)nc(N)nc12` [Example 25, N-(5-(2-amino-8-(2-methoxyethoxy)-4-methylquinazolin-6-yl)-2-methoxypyridin-3-yl)-2,4-difluorobenzenesulfonamide] were, in that order, 0.0016 µM and 0.2 µM.
The like results for `COc1ncc(-c2cc(OC(C)C)c3nc(N)nc(C)c3c2)cc1NS(=O)(=O)c1ccc(F)cc1F` [Example 26, N-(5-(2-amino-8-isopropoxy-4-methylquinazolin-6-yl)-2-methoxypyridin-3-yl)-2,4-difluorobenzenesulfonamide] were, in that order, 0.00079 µM and 0.14 µM.
For `COc1ncc(-c2cc(OCC3CC3)c3nc(N)nc(C)c3c2)cc1NS(=O)(=O)c1ccc(F)cc1F` [Example 27, N-(5-(2-amino-8-(cyclopropylmethoxy)-4-methylquinazolin-6-yl)-2-methoxypyridin-3-yl)-2,4-difluorobenzenesulfonamide], in that order: 0.0017 µM and 0.2 µM.
Consider `COc1ncc(-c2cc(OC)c3nc(N)nc(C)c3c2)cc1NS(=O)(=O)c1ccc(F)cc1F` [Example 28, N-(5-(2-amino-8-methoxy-4-methylquinazolin-6-yl)-2-methoxypyridin-3-yl)-2,4-difluorobenzenesulfonamide], for which the IC50 against PI3Kα is 0.0012 µM; in assay [1] it was 0.28 µM.
`CNc1nc(C)c2cc(-c3cnc(OC)c(NS(=O)(=O)c4ccc(F)cc4F)c3)cc(OC3CCOCC3)c2n1` [Example 29, N-(2-methoxy-5-(4-methyl-2-(methylamino)-8-((tetrahydro-2H-pyran-4-yl)oxy)quinazolin-6-yl)pyridin-3-yl)-2,4-difluorobenzenesulfonamide]: the IC50 turned out to be 0.0011 µM against PI3Kα and 0.059 µM in assay [1].
For `CCNc1nc(C)c2cc(-c3cnc(OC)c(NS(=O)(=O)c4ccc(F)cc4F)c3)cc(OC3CCOCC3)c2n1` [Example 30, N-(5-(2-(ethylamino)-4-methyl-8-((tetrahydro-2H-pyran-4-yl)oxy)quinazolin-6-yl)-2-methoxypyridin-3-yl)-2,4-difluorobenzenesulfonamide], in that order: 0.0013 µM and 0.24 µM.
